Test results taken from US7863449B2, “Modulators of muscarinic receptors” (Vertex Pharmaceuticals Incorporated, priority 2004, dated 2011).

Columns and labels:
M1 muscarinic receptor = target: T1, M1 muscarinic receptor (Homo sapiens, UniProt P11229); test: Functional mobilization of intracellular calcium (FLIPR), M1-CHO cells; format: cell-based; conditions: for Emax: 100% efficacy is the maximum response obtained using Carbachol as a control; for M1 Activity: M1-CHO cells, FLIPR calcium mobilization
T1 construct: expressed in transfected cells; host or cells: CHO (M1-CHO)
T1 sequence (P11229 1-460): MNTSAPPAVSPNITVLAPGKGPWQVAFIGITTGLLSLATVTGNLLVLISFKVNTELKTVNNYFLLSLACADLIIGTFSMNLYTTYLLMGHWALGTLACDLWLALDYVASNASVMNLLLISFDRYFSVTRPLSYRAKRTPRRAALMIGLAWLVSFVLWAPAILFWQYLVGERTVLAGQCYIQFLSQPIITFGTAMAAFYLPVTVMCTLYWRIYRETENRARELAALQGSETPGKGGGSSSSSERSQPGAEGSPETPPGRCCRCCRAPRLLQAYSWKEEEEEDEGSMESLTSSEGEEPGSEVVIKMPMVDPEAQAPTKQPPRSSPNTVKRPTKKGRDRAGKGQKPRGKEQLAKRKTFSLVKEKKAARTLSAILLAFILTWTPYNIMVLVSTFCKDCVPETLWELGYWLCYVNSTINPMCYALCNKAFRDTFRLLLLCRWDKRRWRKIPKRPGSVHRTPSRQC
Outline: (§1)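 CHO cells expressing M1 or M4, loaded with Fluo-3 AM or Calcium 3 dye with 1 mM probenecid, 0.5% DMSO final. Agonist mode: compound added directly; antagonist mode: 15 min pre-incubation (or co-application) before carbachol at EC80. Fluorescence recorded 60 s on FLIPR.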

M4 muscarinic receptor = target: T2, M4 muscarinic receptor (Homo sapiens, UniProt P08173); test: Functional mobilization of intracellular calcium (FLIPR), M4-CHO cells; format: cell-based; conditions: for Emax: 100% efficacy is the maximum response obtained using Carbachol as a control; for M4 Activity: M4-CHO cells, FLIPR calcium mobilization
T2 construct: expressed in transfected cells; host or cells: CHO (M4-CHO)
T2 sequence (P08173 1-479): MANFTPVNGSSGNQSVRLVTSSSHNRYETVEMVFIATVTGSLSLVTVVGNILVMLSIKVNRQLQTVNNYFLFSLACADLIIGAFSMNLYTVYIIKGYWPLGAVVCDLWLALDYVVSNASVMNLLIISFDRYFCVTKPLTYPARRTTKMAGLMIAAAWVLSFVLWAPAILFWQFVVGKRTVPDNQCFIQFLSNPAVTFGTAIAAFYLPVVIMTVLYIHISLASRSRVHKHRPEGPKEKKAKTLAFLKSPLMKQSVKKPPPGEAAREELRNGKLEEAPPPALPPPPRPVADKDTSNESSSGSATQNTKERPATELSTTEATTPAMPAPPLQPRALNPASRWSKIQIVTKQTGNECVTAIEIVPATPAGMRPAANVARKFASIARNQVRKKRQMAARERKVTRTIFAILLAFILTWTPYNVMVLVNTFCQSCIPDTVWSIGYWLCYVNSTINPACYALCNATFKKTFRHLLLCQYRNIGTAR
Outline: as §1

SMILES	Emax (M1 muscarinic receptor) [%]	M1 Activity (M1 muscarinic receptor)	Emax (M4 muscarinic receptor) [%]	M4 Activity (M4 muscarinic receptor)
CCOC(=O)N1C2CCC1CC(N1CCC3(CC1)CN(C(=O)NC1CCCC1)Cc1ccccc13)C2 (stereo not shown) [compound 321]	25 to 100	+++ (activity was measured to be less than 1.0 μM)	25 to 100	+++ (activity was measured to be less than 1.0 μM)
CC(=O)N1Cc2ccccc2C2(CCN(Cc3ccccc3C#N)CC2)C1 [compound 322]	< 25	+ (activity was measured to be greater than 5.0 μM)	< 25	+ (activity was measured to be greater than 5.0 μM)
CSC(C)CCN1CCC2(CC1)NC(=O)c1ccccc12 (stereo not shown) [compound 323]	< 25	+ (activity was measured to be greater than 5.0 μM)	< 25	+ (activity was measured to be greater than 5.0 μM)
CCOC(=O)N1C2CCC1CC(N1CCC3(CC1)CN(S(=O)(=O)c1cccc(F)c1)Cc1ccccc13)C2 (stereo not shown) [compound 324]	25 to 100	+++ (activity was measured to be less than 1.0 μM)	25 to 100	+++ (activity was measured to be less than 1.0 μM)
CCCC1CCC(N2CCC3(CC2)CN(C(C)=O)Cc2ccccc23)CC1 (stereo not shown) [compound 326]	25 to 100	+++ (activity was measured to be less than 1.0 μM)	25 to 100	+++ (activity was measured to be less than 1.0 μM)
CN(C)C(=O)N1Cc2ccccc2C2(CCN(C3CC4CCC(C3)N4C(=O)OC3CCC3)CC2)C1 (stereo not shown) [compound 327]	25 to 100	+++ (activity was measured to be less than 1.0 μM)	25 to 100	+++ (activity was measured to be less than 1.0 μM)
CCOC(=O)N1CCC(N2CCC3(CC2)CN(C(=O)c2snnc2C)Cc2ccccc23)CC1 [compound 328]	25 to 100	+++ (activity was measured to be less than 1.0 μM)	25 to 100	+++ (activity was measured to be less than 1.0 μM)
CCOC(=O)N1CCC(CN2CCC3(CC2)CN(C(=O)c2cnon2)Cc2ccccc23)CC1 [compound 329]	25 to 100	+++ (activity was measured to be less than 1.0 μM)	25 to 100	+++ (activity was measured to be less than 1.0 μM)
CCOC(=O)N1CCC(CN2CCC3(CC2)CN(C(=O)c2ccccn2)Cc2ccccc23)CC1 [compound 330]	25 to 100	+++ (activity was measured to be less than 1.0 μM)	25 to 100	+++ (activity was measured to be less than 1.0 μM)
CC(=O)N1Cc2ccccc2C2(CCN(Cc3cc(C)ccc3F)CC2)C1 [compound 331]	< 25	+ (activity was measured to be greater than 5.0 μM)	< 25	+ (activity was measured to be greater than 5.0 μM)
CC(=O)N1Cc2ccccc2C2(CCN(Cc3cccc(C)n3)CC2)C1 [compound 334]	< 25	+ (activity was measured to be greater than 5.0 μM)	< 25	+ (activity was measured to be greater than 5.0 μM)
CC(=O)N1Cc2ccccc2C2(CCN(Cc3ccc(C(C)O)cc3)CC2)C1 (stereo not shown) [compound 335]	< 25	+ (activity was measured to be greater than 5.0 μM)	< 25	+ (activity was measured to be greater than 5.0 μM)
CCOC(=O)N1CCC(N2CCC3(CC2)CN(S(=O)(=O)c2ccc(F)cc2)Cc2ccccc23)CC1 [compound 337]	25 to 100	+++ (activity was measured to be less than 1.0 μM)	25 to 100	+++ (activity was measured to be less than 1.0 μM)
CCOC(=O)N1CCC(N2CCC3(CC2)CN(C(=O)Oc2ccc(F)cc2)Cc2ccccc23)CC1 [compound 342]	25 to 100	+++ (activity was measured to be less than 1.0 μM)	25 to 100	+++ (activity was measured to be less than 1.0 μM)
CCOC(=O)N1C2CCC1CC(N1CCC3(CC1)CN(C(=O)N1CCCCC1)Cc1ccccc13)C2 (stereo not shown) [compound 344]	25 to 100	+++ (activity was measured to be less than 1.0 μM)	25 to 100	+++ (activity was measured to be less than 1.0 μM)
CCOC(=O)N1CCC(CN2CCC3(CC2)CN(S(=O)(=O)c2ccc(F)cc2)Cc2ccccc23)CC1 [compound 345]	25 to 100	+++ (activity was measured to be less than 1.0 μM)	25 to 100	+++ (activity was measured to be less than 1.0 μM)
CC(C)(C)CCN1CCC2(CC1)NC(=O)c1ccccc12 [compound 346]	25 to 100	++ (activity was measured to be from 1.0 μM to 5.0 μM)	25 to 100	++ (activity was measured to be from 1.0 μM to 5.0 μM)
O=C1c2ccccc2C2(CCN(C3CCCCCC3)CC2)N1Cc1ccccc1 [compound 347]	25 to 100	+ (activity was measured to be greater than 5.0 μM)	< 25	+ (activity was measured to be greater than 5.0 μM)
CC(=O)N1Cc2ccccc2C2(CCN(C3CC4CCC(C3)N4C(=O)OC3CCC3)CC2)C1 (stereo not shown) [compound 348]	25 to 100	+++ (activity was measured to be less than 1.0 μM)	25 to 100	+++ (activity was measured to be less than 1.0 μM)
CC(=O)N1Cc2ccccc2C2(CCN(C3CCCCCC3)CC2)C1 [compound 349]	25 to 100	+++ (activity was measured to be less than 1.0 μM)	25 to 100	+++ (activity was measured to be less than 1.0 μM)
CCOC(=O)N1C2CCC1CC(N1CCC3(CC1)CN(C(=O)NC(C)C)Cc1ccccc13)C2 (stereo not shown) [compound 350]	25 to 100	+++ (activity was measured to be less than 1.0 μM)	25 to 100	+++ (activity was measured to be less than 1.0 μM)
Cc1cc(C(=O)N2Cc3ccccc3C3(CCN(C4CC5CCC(C4)N5C(=O)O[C@@H]4CCOC4)CC3)C2)nn1C (stereo partly shown) [compound 351]	25 to 100	+++ (activity was measured to be less than 1.0 μM)	25 to 100	+++ (activity was measured to be less than 1.0 μM)
O=C1NC2(CCN(CC3CCOC3)CC2)c2ccccc21 (stereo not shown) [compound 352]	< 25	+ (activity was measured to be greater than 5.0 μM)	< 25	+ (activity was measured to be greater than 5.0 μM)
CCCOC(=O)N1C2CCC1CC(N1CCC3(CC1)CN(S(=O)(=O)CCC)Cc1ccccc13)C2 (stereo not shown) [compound 353]	25 to 100	+++ (activity was measured to be less than 1.0 μM)	25 to 100	+++ (activity was measured to be less than 1.0 μM)
CC(=O)N1Cc2ccccc2C2(CCN(C3CC4CCC(C3)N4C(=O)O[C@H]3CCOC3)CC2)C1 (stereo partly shown) [compound 354]	25 to 100	+++ (activity was measured to be less than 1.0 μM)	25 to 100	+++ (activity was measured to be less than 1.0 μM)
CCOC(=O)N1C2CCC1CC(N1CCC3(CC1)CN(S(=O)(=O)c1ccc(C#N)cc1)Cc1ccccc13)C2 (stereo not shown) [compound 355]	25 to 100	+++ (activity was measured to be less than 1.0 μM)	25 to 100	+++ (activity was measured to be less than 1.0 μM)
CCOC(=O)N1CCC(CN2CCC3(CC2)CN(S(=O)(=O)N(C)C)Cc2ccccc23)CC1 [compound 356]	25 to 100	+++ (activity was measured to be less than 1.0 μM)	25 to 100	+++ (activity was measured to be less than 1.0 μM)
CCCOC(=O)N1C2CCC1CC(N1CCC3(CC1)CN(C(C)=O)Cc1ccccc13)C2 (stereo not shown) [compound 357]	25 to 100	+++ (activity was measured to be less than 1.0 μM)	25 to 100	+++ (activity was measured to be less than 1.0 μM)
